Source: the kinase profiling compilation of Christmann-Franck et al. (2016)

Legend:
Experiment in all cases: radiometric filter-binding kinase assay, Kinase HotSpot
Conditions in all cases: compound 0.5 µM; ATP 10 µM
AKT3 (human) = AKT3 (human) (UniProt Q9Y243)
AURKA (human) = AURKA (human) (UniProt O14965)
AURKB (human) = AURKB (human) (UniProt Q96GD4)
BLK (human) = BLK (human) (UniProt P51451)
CAMKK1 (human) = CAMKK1 (human) (UniProt Q8N5S9)
CDC42BPB (human) = CDC42BPB (human) (UniProt Q9Y5S2)
CDC42BPB (human), sequence (Q9Y5S2 whole entry, looked up): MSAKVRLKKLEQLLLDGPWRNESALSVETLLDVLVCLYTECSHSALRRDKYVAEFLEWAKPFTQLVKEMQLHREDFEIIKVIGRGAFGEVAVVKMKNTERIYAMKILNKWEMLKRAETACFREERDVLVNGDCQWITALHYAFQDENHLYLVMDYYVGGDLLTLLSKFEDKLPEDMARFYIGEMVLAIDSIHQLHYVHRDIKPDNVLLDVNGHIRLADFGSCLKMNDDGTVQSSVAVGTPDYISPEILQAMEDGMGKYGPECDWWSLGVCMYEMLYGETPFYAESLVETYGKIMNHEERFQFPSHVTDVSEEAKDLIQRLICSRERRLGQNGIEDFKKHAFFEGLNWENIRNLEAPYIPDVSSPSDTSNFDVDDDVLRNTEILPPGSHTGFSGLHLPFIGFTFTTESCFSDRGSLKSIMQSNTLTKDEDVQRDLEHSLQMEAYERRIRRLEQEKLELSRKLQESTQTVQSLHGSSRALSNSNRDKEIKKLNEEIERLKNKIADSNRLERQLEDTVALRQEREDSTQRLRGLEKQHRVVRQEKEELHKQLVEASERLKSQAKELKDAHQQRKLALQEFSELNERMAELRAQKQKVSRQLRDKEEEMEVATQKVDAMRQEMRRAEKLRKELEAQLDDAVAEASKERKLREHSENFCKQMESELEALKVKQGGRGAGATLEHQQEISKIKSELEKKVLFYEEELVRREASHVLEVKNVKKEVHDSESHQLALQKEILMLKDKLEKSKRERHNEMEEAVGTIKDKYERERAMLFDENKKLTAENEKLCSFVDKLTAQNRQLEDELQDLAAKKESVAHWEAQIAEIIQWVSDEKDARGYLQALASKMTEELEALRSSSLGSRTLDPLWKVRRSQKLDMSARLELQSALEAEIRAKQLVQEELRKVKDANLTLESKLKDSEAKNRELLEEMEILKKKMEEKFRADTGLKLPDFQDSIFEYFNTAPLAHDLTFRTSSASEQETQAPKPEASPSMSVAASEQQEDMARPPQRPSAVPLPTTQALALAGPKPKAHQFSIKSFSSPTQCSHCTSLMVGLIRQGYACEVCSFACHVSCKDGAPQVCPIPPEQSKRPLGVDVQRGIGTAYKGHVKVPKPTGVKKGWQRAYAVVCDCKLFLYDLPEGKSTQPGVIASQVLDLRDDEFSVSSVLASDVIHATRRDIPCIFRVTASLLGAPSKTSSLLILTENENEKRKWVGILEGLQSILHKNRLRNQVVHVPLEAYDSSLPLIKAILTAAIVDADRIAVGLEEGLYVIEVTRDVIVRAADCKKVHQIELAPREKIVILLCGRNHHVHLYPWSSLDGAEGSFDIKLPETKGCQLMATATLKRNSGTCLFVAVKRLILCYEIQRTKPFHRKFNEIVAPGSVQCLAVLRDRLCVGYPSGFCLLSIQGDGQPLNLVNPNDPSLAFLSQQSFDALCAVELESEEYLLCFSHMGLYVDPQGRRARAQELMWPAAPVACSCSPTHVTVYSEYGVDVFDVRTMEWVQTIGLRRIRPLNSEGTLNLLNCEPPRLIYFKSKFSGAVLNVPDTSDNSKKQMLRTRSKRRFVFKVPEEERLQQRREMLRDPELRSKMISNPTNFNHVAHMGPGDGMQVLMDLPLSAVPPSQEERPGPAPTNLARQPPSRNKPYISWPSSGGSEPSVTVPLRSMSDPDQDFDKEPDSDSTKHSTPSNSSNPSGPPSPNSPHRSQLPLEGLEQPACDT

CDK5 CDK5R1 p25 (human) = CDK5 CDK5R1 p25 (human) (UniProt Q00535+Q15078)
CSNK1A1 (human) = CSNK1A1 (human) (UniProt P48729)
CSNK1D (human) = CSNK1D (human) (UniProt P48730)
CSNK1E (human) = CSNK1E (human) (UniProt P49674)
CSNK1E (human), sequence (P49674 whole entry, looked up): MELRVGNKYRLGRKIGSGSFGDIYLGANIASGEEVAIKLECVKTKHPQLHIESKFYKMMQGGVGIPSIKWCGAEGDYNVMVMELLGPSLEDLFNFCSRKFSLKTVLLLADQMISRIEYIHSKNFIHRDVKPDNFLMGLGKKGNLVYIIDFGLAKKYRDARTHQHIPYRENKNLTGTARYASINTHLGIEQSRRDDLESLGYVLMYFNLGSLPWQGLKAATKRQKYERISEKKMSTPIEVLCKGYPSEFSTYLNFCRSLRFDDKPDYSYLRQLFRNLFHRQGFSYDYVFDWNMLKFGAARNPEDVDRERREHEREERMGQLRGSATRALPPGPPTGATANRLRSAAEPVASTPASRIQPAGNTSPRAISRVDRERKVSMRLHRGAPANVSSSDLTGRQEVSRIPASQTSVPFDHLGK

DAPK1 (human) = DAPK1 (human) (UniProt P53355)
DMPK (human) = DMPK (human) (UniProt Q09013)
DYRK1A (human) = DYRK1A (human) (UniProt Q13627)
EPHB2 (human) = EPHB2 (human) (UniProt P29323)
FES (human) = FES (human) (UniProt P07332)
FGR (human) = FGR (human) (UniProt P09769)
FGR (human), sequence (P09769 whole entry, looked up): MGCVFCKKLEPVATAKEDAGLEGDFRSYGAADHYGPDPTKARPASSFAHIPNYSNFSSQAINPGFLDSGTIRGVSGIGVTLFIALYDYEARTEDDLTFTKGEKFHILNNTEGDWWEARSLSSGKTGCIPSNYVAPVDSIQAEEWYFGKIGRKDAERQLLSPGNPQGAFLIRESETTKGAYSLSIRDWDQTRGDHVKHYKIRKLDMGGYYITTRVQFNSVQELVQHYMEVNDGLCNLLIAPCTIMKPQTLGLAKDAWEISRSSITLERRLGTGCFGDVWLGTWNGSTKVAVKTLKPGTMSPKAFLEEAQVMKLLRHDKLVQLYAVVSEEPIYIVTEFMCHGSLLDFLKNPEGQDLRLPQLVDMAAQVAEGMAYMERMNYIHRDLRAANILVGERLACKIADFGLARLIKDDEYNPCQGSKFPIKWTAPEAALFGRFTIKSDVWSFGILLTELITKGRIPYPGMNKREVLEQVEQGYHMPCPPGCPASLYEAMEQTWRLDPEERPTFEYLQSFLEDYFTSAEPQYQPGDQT

FLT1 (human) = FLT1 (human) (UniProt P17948)
FLT1 (human), sequence (P17948 whole entry, looked up): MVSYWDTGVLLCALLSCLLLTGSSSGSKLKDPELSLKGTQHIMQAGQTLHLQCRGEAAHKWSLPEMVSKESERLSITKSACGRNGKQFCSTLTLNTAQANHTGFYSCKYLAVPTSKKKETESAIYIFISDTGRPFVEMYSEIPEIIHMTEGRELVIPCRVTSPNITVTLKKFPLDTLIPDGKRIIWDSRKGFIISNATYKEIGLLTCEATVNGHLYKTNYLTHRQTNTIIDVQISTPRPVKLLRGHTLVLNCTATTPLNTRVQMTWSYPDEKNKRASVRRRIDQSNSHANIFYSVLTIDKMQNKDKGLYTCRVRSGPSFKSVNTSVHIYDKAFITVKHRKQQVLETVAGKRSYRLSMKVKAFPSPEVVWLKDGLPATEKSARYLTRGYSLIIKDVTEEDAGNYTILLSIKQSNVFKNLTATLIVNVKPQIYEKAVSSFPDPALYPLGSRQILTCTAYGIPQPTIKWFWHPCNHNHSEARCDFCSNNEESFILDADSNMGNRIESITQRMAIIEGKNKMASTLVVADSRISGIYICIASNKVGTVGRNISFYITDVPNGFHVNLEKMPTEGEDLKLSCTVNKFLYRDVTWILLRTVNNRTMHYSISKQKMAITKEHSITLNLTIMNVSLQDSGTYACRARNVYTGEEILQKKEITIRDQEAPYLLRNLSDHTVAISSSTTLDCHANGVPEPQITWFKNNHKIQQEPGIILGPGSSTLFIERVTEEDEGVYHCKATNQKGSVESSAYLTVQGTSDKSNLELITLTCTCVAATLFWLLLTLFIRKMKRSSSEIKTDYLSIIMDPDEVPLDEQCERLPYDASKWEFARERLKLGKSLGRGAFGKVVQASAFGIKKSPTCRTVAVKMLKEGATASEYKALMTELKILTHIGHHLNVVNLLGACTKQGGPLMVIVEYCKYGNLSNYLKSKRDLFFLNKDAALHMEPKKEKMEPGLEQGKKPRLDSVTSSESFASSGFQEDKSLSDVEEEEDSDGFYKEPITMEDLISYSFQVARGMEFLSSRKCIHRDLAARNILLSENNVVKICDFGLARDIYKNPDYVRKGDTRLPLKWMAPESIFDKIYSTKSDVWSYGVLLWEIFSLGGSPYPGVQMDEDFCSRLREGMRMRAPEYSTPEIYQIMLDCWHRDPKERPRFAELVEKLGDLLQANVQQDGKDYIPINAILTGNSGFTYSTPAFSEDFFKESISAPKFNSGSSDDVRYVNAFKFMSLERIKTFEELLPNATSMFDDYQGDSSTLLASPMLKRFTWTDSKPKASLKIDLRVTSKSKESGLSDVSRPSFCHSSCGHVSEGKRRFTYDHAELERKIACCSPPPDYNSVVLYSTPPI

GSK3A (human) = GSK3A (human) (UniProt P49840)
HIPK2 (human) = HIPK2 (human) (UniProt Q9H2X6)
INSRR (human) = INSRR (human) (UniProt P14616)
[1] = target: JAK1 JH1 catalytic (human) (UniProt P23458)
JAK2 JH1 JH2 (human) = JAK2 JH1 JH2 (human) (UniProt O60674)
MAP2K2 (human) = MAP2K2 (human) (UniProt P36507)
MAP3K11 (human) = MAP3K11 (human) (UniProt Q16584)
MAP3K2 (human) = MAP3K2 (human) (UniProt Q9Y2U5)
MAP3K2 (human), sequence (Q9Y2U5 whole entry, looked up): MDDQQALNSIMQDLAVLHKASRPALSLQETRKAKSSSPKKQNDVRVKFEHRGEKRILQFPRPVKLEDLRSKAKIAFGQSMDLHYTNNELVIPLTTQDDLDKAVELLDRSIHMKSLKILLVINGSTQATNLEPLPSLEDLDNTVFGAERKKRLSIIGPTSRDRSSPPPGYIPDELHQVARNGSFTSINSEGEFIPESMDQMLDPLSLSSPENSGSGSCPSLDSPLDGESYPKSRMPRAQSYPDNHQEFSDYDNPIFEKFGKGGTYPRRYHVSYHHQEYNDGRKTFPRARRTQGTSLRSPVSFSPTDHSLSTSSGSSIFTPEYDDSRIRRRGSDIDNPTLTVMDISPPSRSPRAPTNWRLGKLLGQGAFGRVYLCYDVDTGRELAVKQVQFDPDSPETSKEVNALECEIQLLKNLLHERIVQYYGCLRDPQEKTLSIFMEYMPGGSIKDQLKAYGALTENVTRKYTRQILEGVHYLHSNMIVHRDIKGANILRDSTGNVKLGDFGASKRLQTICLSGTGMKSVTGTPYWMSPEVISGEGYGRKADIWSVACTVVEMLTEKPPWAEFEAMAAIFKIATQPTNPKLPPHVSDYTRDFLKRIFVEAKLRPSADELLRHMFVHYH

MAPK11 (human) = MAPK11 (human) (UniProt Q15759)
MAPK11 (human), sequence (Q15759 whole entry, looked up): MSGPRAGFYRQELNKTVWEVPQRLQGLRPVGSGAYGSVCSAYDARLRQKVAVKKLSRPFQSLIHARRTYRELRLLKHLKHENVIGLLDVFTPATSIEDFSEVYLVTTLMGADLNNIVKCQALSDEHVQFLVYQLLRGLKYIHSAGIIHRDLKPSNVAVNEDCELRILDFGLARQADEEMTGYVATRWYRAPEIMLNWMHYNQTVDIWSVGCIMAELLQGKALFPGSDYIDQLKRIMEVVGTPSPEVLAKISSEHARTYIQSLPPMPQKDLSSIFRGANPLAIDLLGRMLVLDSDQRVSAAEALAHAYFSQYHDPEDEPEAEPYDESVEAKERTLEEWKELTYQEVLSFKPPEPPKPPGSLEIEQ

MET (human) = MET (human) (UniProt P08581)
MLTK (human) = MLTK (human) (UniProt Q9NYL2)
MYLK2 (human) = MYLK2 (human) (UniProt Q9H1R3)
OXSR1 (human) = OXSR1 (human) (UniProt O95747)
PDGFRB (human) = PDGFRB (human) (UniProt P09619)
PIM2 (human) = PIM2 (human) (UniProt Q9P1W9)
PRKCD (human) = PRKCD (human) (UniProt Q05655)
PRKG2 (human) = PRKG2 (human) (UniProt Q13237)
PTK2 (human) = PTK2 (human) (UniProt Q05397)
RAF1 (human) = RAF1 (human) (UniProt P04049)
RPS6KA2 KD1 KD2 (human) = RPS6KA2 KD1 KD2 (human) (UniProt Q15349)
SGK3 (human) = SGK3 (human) (UniProt Q96BR1)
SRC (human) = SRC (human) (UniProt P12931)
STK4 (human) = STK4 (human) (UniProt Q13043)
TGFBR1 (human) = TGFBR1 (human) (UniProt P36897)
YES1 (human) = YES1 (human) (UniProt P07947)

Compound: CN(C)c1ccc(/C=C2\C(=O)Nc3ccccc32)cc1
- residual activity (AKT3 (human)): 103%
- residual activity (AURKA (human)): 104%
- residual activity (AURKB (human)): 61.4%
- residual activity (BLK (human)): 99.2%
- residual activity (CAMKK1 (human)): 98.6%
- residual activity (CDC42BPB (human)): 89.5%
- residual activity (CDK5 CDK5R1 p25 (human)): 102%
- residual activity (CSNK1A1 (human)): 105%
- residual activity (CSNK1D (human)): 69%
- residual activity (CSNK1E (human)): 57.2%
- residual activity (DAPK1 (human)): 92.2%
- residual activity (DMPK (human)): 105%
- residual activity (DYRK1A (human)): 103%
- residual activity (EPHB2 (human)): 86.5%
- residual activity (FES (human)): 97.8%
- residual activity (FGR (human)): 90%
- residual activity (FLT1 (human)): 92%
- residual activity (GSK3A (human)): 104%
- residual activity (HIPK2 (human)): 106%
- residual activity (INSRR (human)): 94.5%
- residual activity [1]: 105%
- residual activity (JAK2 JH1 JH2 (human)): 94.8%
- residual activity (MAP2K2 (human)): 99.4%
- residual activity (MAP3K11 (human)): 88.4%
- residual activity (MAP3K2 (human)): 99.8%
- residual activity (MAPK11 (human)): 93.5%
- residual activity (MET (human)): 101%
- residual activity (MLTK (human)): 96.5%
- residual activity (MYLK2 (human)): 82.6%
- residual activity (OXSR1 (human)): 106%
- residual activity (PDGFRB (human)): 85.8%
- residual activity (PIM2 (human)): 82.4%
- residual activity (PRKCD (human)): 95.6%
- residual activity (PRKG2 (human)): 105%
- residual activity (PTK2 (human)): 104%
- residual activity (RAF1 (human)): 101%
- residual activity (RPS6KA2 KD1 KD2 (human)): 89.1%
- residual activity (SGK3 (human)): 107%
- residual activity (SRC (human)): 102%
- residual activity (STK4 (human)): 93.2%
- residual activity (TGFBR1 (human)): 96.7%
- residual activity (YES1 (human)): 89.3%

Compound: COc1cc2ncnc(Nc3ccc(Oc4ccccc4)cc3)c2cc1OC
- residual activity (AKT3 (human)): 105%
- residual activity (AURKA (human)): 79.2%
- residual activity (AURKB (human)): 50.9%
- residual activity (BLK (human)): 9.95%
- residual activity (CAMKK1 (human)): 93.1%
- residual activity (CDC42BPB (human)): 106%
- residual activity (CDK5 CDK5R1 p25 (human)): 88.8%
- residual activity (CSNK1A1 (human)): 98.2%
- residual activity (CSNK1D (human)): 106%
- residual activity (CSNK1E (human)): 100%
- residual activity (DAPK1 (human)): 105%
- residual activity (DMPK (human)): 106%
- residual activity (DYRK1A (human)): 84.6%
- residual activity (EPHB2 (human)): 99.7%
- residual activity (FES (human)): 99.6%
- residual activity (FGR (human)): 8.91%
- residual activity (FLT1 (human)): 79.8%
- residual activity (GSK3A (human)): 97%
- residual activity (HIPK2 (human)): 94.8%
- residual activity (INSRR (human)): 102%
- residual activity [1]: 105%
- residual activity (JAK2 JH1 JH2 (human)): 95.6%
- residual activity (MAP2K2 (human)): 105%
- residual activity (MAP3K11 (human)): 68.5%
- residual activity (MAP3K2 (human)): 102%
- residual activity (MAPK11 (human)): 105%
- residual activity (MLTK (human)): 95.2%
- residual activity (MYLK2 (human)): 101%
- residual activity (OXSR1 (human)): 97.5%
- residual activity (PDGFRB (human)): 95.6%
- residual activity (PIM2 (human)): 107%
- residual activity (PRKCD (human)): 96.8%
- residual activity (PRKG2 (human)): 98.3%
- residual activity (PTK2 (human)): 98.1%
- residual activity (RAF1 (human)): 88.9%
- residual activity (RPS6KA2 KD1 KD2 (human)): 98%
- residual activity (SGK3 (human)): 101%
- residual activity (SRC (human)): 82.8%
- residual activity (STK4 (human)): 107%
- residual activity (TGFBR1 (human)): 97.1%
- residual activity (YES1 (human)): 7.96%

Compound: O=C1c2ccccc2-c2nc3nnnn3nc21
- residual activity (AKT3 (human)): 81.2%
- residual activity (AURKA (human)): 71.4%
- residual activity (AURKB (human)): 84.7%
- residual activity (BLK (human)): 109%
- residual activity (CAMKK1 (human)): 74.9%
- residual activity (CDC42BPB (human)): 82.6%
- residual activity (CDK5 CDK5R1 p25 (human)): 46.4%
- residual activity (CSNK1A1 (human)): 85.8%
- residual activity (CSNK1D (human)): 86.8%
- residual activity (CSNK1E (human)): 80.6%
- residual activity (DAPK1 (human)): 92.2%
- residual activity (DMPK (human)): 84.8%
- residual activity (DYRK1A (human)): 95%
- residual activity (EPHB2 (human)): 86.1%
- residual activity (FES (human)): 87.6%
- residual activity (FGR (human)): 79.8%
- residual activity (FLT1 (human)): 3.06%
- residual activity (GSK3A (human)): 88.7%
- residual activity (HIPK2 (human)): 107%
- residual activity (INSRR (human)): 86.7%
- residual activity [1]: 101%
- residual activity (JAK2 JH1 JH2 (human)): 82.6%
- residual activity (MAP2K2 (human)): 94.7%
- residual activity (MAP3K11 (human)): 69%
- residual activity (MAP3K2 (human)): 83%
- residual activity (MAPK11 (human)): 101%
- residual activity (MET (human)): 83.3%
- residual activity (MLTK (human)): 69.8%
- residual activity (MYLK2 (human)): 88.1%
- residual activity (OXSR1 (human)): 83%
- residual activity (PDGFRB (human)): 11.3%
- residual activity (PIM2 (human)): 92.8%
- residual activity (PRKCD (human)): 102%
- residual activity (PRKG2 (human)): 140%
- residual activity (RAF1 (human)): 76.1%
- residual activity (RPS6KA2 KD1 KD2 (human)): 89.1%
- residual activity (SGK3 (human)): 90.4%
- residual activity (SRC (human)): 80.4%
- residual activity (STK4 (human)): 87.8%
- residual activity (TGFBR1 (human)): 107%
- residual activity (YES1 (human)): 89.1%
